Assay results as given in patent publication US9259452B2, “Deacetylase inhibitor therapy” (Celgene Corporation, priority 2006, dated 2016).

Tests used:
[1] = Toxicities and cardiac events observed on the phase II trial; format: in vivo, human
Text: (§1) The protocol (NCI 01-C-0049 or 1312) and informed consent were approved by the Institutional Review Board of the National Cancer Institute. All data used in this analysis were obtained from patients who signed an informed consent and were enrolled and treated at the NIH Warren Grant Magnuson Clinical Center. Toxicities were reported using the National Cancer Institute Common Toxicity Criteria, CTC version 2.0. The Inclusion Criteria required measurable disease, an age of 18 years or older, an ECOG performance status of 0, 1 or 2, and a life expectancy of >12 wk. Required laboratory values included AGC≧1000/μL, platelets≧100,000/μL, bilirubin <1.5× the institutional upper limit of normal (ULN), AST <3×ULN, and creatinine <1.5×ULN. Patients with a myocardial infarction within the previous 6 months, a left ventricular ejection fraction (LVEF) below normal (<45% if performed by MUGA, or <50% if performed by echocardiogram or cardiac MRI), a corrected QT interval of >500 ms, unstable angina, or third degree heart block (unless with pacemaker) were not eligible to enroll.
(§2) Subsequently, the protocol was amended and all patients were treated on days 1, 8 and 15 of a 28 day cycle, with a starting dose of 14 mg/m^2. This change was made for improved patient tolerability. […] Provisions for dose reduction were made in the case of grade 3 or 4 toxicity. Alternatively, a dose increase was allowed for patients who had no serious toxicities.

[2] = ECG evaluation of T-wave (grade 1) and ST segment (grade 2) abnormalities, phase II trial of romidepsin in T-cell lymphoma patients; format: in vivo, human; details: for ECGs Grade 0 (no T-wave/ST segment abnormality) / ECGs Grade 1 (T-wave abnormality) / ECGs Grade 2 (ST segment depression): all doses, n = 42 patients
Text: as §1, §2

[3] = Pre-treatment cycle 2 day 1 (n = 34), worst grade cycle 1: 1
[4] = Pre-treatment cycle 2 day 1 (n = 34), worst grade cycle 1: 2
[5] = Pre-treatment cycle 3 day 1 (n = 28), worst grade cycle 2: 1
[6] = Pre-treatment cycle 3 day 1 (n = 28), worst grade cycle 2: 2
[7] = Pre-treatment day 8 (n = 37), worst grade post-day 1 treatment 0
[8] = Pre-treatment day 8 (n = 37), worst grade post-day 1 treatment 1
[9] = Pre-treatment day 8 (n = 37), worst grade post-day 1 treatment 2
[10] = Pre-treatment day 15 (n = 36), worst grade post-day 8 treatment 0
[11] = Pre-treatment day 15 (n = 36), worst grade post-day 8 treatment 1
[12] = Pre-treatment day 15 (n = 36), worst grade post-day 8 treatment 2
[13] = Day after treatment, listed as depsipeptide
[14] = Immediate post infusion, listed as depsipeptide
[15] = Pre-treatment ECGs, listed as depsipeptide
[16] = any time during treatment, 37 patients on day 1, 8, 15 schedule
[17] = first dose of the first cycle (n = 42), Day 2
[18] = first dose of the first cycle (n = 42), Day 3
[19] = first dose of the first cycle (n = 42), Post infusion
[20] = first dose of the first cycle (n = 42), Pre (baseline)

C/C=C1\NC(=O)[C@H]2CSSCC/C=C/[C@H](CC(=O)N[C@H](C(C)C)C(=O)N2)OC(=O)[C@H](C(C)C)NC1=O [romidepsin, (1S,4S,10S,16E,21R)-7-[(2Z)-ethylidene]-4,21-diisopropyl-2-oxa-12,13-dithia-5,8,20,23-tetraazabicyclo[8.7.6]tricos-16-ene-3,6,9,19,22-pentanone]
Observed toxicities ([1]; 42 patients, phase II trial): primarily nausea and fatigue | Pre-treatment and post-treatment EP studies ([1]; one patient with significant ectopy prior to initiation of protocol): no change in intracardiac conduction or inducibility of any arrhythmias | Cardiac event in a patient with QTc greater than 500 ([1]; telemetry, abnormal magnesium and potassium levels): 12 beat run of VT that was asymptomatic and did not recur | Patients with worst ECG Grade 0 ([2]; All cycles, 42 patients): 2% | Patients with worst ECG Grade 1 ([2]; All cycles, 42 patients): 45% | Patients with worst ECG Grade 2 ([2]; All cycles, 42 patients): 52% | Patients with worst ECG Grade 0 ([2]; Cycle 1 only, 42 patients): 19% | Patients with worst ECG Grade 1 ([2]; Cycle 1 only, 42 patients): 57% | Patients with worst ECG Grade 2 ([2]; Cycle 1 only, 42 patients): 24% | Patients with ECG grade 0 at presentation for next cycle ([2]; Pre-treatment cycle 2 day 1 (n = 34), worst grade cycle 1: 0): 6 | Patients with ECG grade 0 at presentation for next cycle [2, 3]: 18 | Patients with ECG grade 1 at presentation for next cycle [2, 3]: 3 | Patients with ECG grade 0 at presentation for next cycle [2, 4]: 4 | Patients with ECG grade 1 at presentation for next cycle [2, 4]: 2 | Patients with ECG grade 2 at presentation for next cycle [2, 4]: 1 | Patients with ECG grade 0 at presentation for next cycle ([2]; Pre-treatment cycle 3 day 1 (n = 28), worst grade cycle 2: 0): 2 | Patients with ECG grade 0 at presentation for next cycle [2, 5]: 16 | Patients with ECG grade 1 at presentation for next cycle [2, 5]: 1 | Patients with ECG grade 0 at presentation for next cycle [2, 6]: 7 | Patients with ECG grade 1 at presentation for next cycle [2, 6]: 2 | Patients with ECG grade 0 at presentation for next cycle ([2]; Pre-treatment cycle 4 day 1 (n = 20), worst grade cycle 3: 1): 14 | Patients with ECG grade 0 at presentation for next cycle ([2]; Pre-treatment cycle 4 day 1 (n = 20), worst grade cycle 3: 2): 6 | Patients with ECG grade 0 at presentation for next dose [2, 7]: 14 | Patients with ECG grade 1 at presentation for next dose [2, 7]: two | Patients with ECG grade 1 at presentation for next dose ([2]; Pre-treatment day 8 (n = 37), worst grade post-day 1 treatment 0, listed as depsipeptide): 2 | Patients with ECG grade 0 at presentation for next dose [2, 8]: nine | Patients with ECG grade 1 at presentation for next dose [2, 8]: 8 | Patients with ECG grade 2 at presentation for next dose [2, 8]: 1 | Patients with ECG grade 0 at presentation for next dose ([2]; Pre-treatment day 8 (n = 37), worst grade post-day 1 treatment 1, listed as depsipeptide): 9 | Patients with ECG grade 0 at presentation for next dose [2, 9]: two | Patients with ECG grade 1 at presentation for next dose [2, 9]: 1 | Patients with ECG grade 0 at presentation for next dose ([2]; Pre-treatment day 8 (n = 37), worst grade post-day 1 treatment 2, listed as depsipeptide): 2 | Patients with ECG grade 0 at presentation for next dose [2, 10]: 6 | Patients with ECG grade 1 at presentation for next dose [2, 10]: 3 | Patients with ECG grade 0 at presentation for next dose [2, 11]: 13 | Patients with ECG grade 1 at presentation for next dose [2, 11]: 10 | Patients with ECG grade 0 at presentation for next dose [2, 12]: 2 | Patients with ECG grade 1 at presentation for next dose [2, 12]: 1 | Patients with ECG grade 2 at presentation for next dose [2, 12]: 1 | ECGs Grade 0 (no T-wave/ST segment abnormality) ([2]; Day after treatment): 20% | ECGs Grade 1 (T-wave abnormality) ([2]; Day after treatment): 69% | ECGs Grade 2 (ST segment depression) ([2]; Day after treatment): 11% | ECGs Grade 1 (T-wave abnormality) [2, 13]: 69% | ECGs Grade 2 (ST segment depression) [2, 13]: 11% | ECGs Grade 0 (no T-wave/ST segment abnormality) ([2]; Immediate post infusion): 49% | ECGs Grade 1 (T-wave abnormality) ([2]; Immediate post infusion): 48% | ECGs Grade 2 (ST segment depression) ([2]; Immediate post infusion): 3% | ECGs Grade 1 (T-wave abnormality) [2, 14]: 48% | ECGs Grade 2 (ST segment depression) [2, 14]: 3% | ECGs Grade 0 (no T-wave/ST segment abnormality) ([2]; Pre-treatment ECGs): 76% | ECGs Grade 1 (T-wave abnormality) ([2]; Pre-treatment ECGs): 22% | ECGs Grade 2 (ST segment depression) ([2]; Pre-treatment ECGs): 2% | ECGs Grade 1 (T-wave abnormality) [2, 15]: 22% | ECGs Grade 2 (ST segment depression) [2, 15]: 2% | Patients with worst ECG Grade 1 [2, 16]: 43% | Patients with worst ECG Grade 2 [2, 16]: 54% | ECGs Grade 0 [2, 17]: 49% | ECGs Grade 1 [2, 17]: 44% | ECGs Grade 2 [2, 17]: 7% | ECGs Grade 0 [2, 18]: 55% | ECGs Grade 1 [2, 18]: 45% | ECGs Grade 0 [2, 19]: 82% | ECGs Grade 1 [2, 19]: 18% | ECGs Grade 0 [2, 20]: 95% | ECGs Grade 1 [2, 20]: 5% | ST segment depression, grade 2 ([2]; first dose of the first cycle, day 3): not observed | Grade 2 ECGs meeting criteria consistent with ischemia (1 mm ST segment depression 80 msec after end of QRS) ([2]; of 69 ECGs scored grade 2, cardiologist review): 45% | Patients returning for the second cycle with no evidence of T-wave or ST-segment abnormalities ([2]; of the 34 patients returning for cycle 2): Twenty-eight
